Data published in patent US12240862B2, “Inhibitors of peptidylarginine deiminases” (Gilead Sciences, Inc., priority 2020, dated 2025).

Biological target: T1, human PAD4 (Homo sapiens, UniProt Q9UM07)
T1 construct: human PAD4 (NM_012387), A2P663, was PCR amplified; His-SUMO (N, cleaved yes); made in house; host or cells: E. coli BL21(DE3)
Assay: In vitro PAD4 BAEE biochemical assay
Conditions: human PAD4, BAEE substrate; 5 nM PAD4, 2 mM calcium chloride, 3 mM BAEE; geometric mean of multiple experiments
Summary of the method: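 Ammonia generated from BAEE serves as the readout, measured by o-phthalaldehyde after EDTA termination. Final conditions: 5 nM human PAD4 (SUMO tag cleaved), 2 mM CaCl2, 3 mM BAEE, pH 7.6 MOPS buffer, 25 °C for 2 h following a 30-min compound preincubation.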

T1 sequence (Q9UM07 2-663): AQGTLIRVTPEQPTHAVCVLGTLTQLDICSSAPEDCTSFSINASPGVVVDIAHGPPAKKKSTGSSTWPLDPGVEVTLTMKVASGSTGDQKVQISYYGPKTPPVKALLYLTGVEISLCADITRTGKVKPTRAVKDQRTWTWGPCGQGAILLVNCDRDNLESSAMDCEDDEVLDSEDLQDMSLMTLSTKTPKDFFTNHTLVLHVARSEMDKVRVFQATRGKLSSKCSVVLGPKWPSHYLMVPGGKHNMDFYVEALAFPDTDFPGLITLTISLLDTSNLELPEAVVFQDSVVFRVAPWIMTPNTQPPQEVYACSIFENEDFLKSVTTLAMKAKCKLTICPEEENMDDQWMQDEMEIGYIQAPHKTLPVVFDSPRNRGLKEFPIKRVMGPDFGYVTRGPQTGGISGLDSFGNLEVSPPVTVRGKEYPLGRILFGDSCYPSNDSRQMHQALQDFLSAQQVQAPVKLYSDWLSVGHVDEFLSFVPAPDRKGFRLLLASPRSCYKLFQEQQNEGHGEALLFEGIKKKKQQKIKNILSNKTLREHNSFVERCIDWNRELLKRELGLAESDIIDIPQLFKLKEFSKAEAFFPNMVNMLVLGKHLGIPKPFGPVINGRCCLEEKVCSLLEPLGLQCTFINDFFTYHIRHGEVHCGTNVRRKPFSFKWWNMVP

Q: Which IC50 does the source give for `COc1cc(C(=O)N2CC[C@@H](O)[C@@H](N)C2)cc2nc(-c3cc4ccc(N(C(F)F)S(C)(=O)=O)nc4n3CC3CC3)c(C)n12` [Example 348, ~{N}-[2-[7-[(3~{S}, 4~{R})-3-amino-4-hydroxypiperidine-1-carbonyl]-5-methoxy-3-methylimidazo [1,2-a]pyridin-2-yl]-1-(cyclopropylmethyl)pyrrolo[2,3-b]pyridin-6-yl]-~{N}-(difluoromethyl) methanesulfonamide] here?
A: 0.144 µM

Q: With `COc1cc(C(=O)N2C[C@H]3CCC[C@@H]2[C@@H]3N)cc2nc(-c3cc4ccc(N(C(F)F)S(C)(=O)=O)nc4n3CC3CC3)c(C)n12` [Example 349, N-(2-(7-((1R,5R,8R)-8-amino-6-azabicyclo[3.2.1]octane-6-carbonyl)-5-methoxy-3-methylimidazo [1,2-a]pyridin-2-yl)-1-(cyclopropylmethyl)-1H-pyrrolo[2,3-b]pyridin-6-yl)-N-(difluoromethyl) methanesulfonamide] as the compound, how does the IC50 read?
A: 0.485 µM

Q: `COc1cc(C(=O)N2[C@H]3CC(C)[C@@H]2[C@H](N)C3)cc2nc(-c3cc4ccc(N(C(F)F)S(C)(=O)=O)nc4n3CC3CC3)c(C)n12` (stereo partly drawn) [Example 351, N-[2-[7-[(1R,2R,4S)-2-amino-6-methyl-7-azabicyclo[2.2.1]heptane-7-carbonyl]-5-methoxy-3-methyl-imidazo[1,2-a]pyridin-2-yl]-1-(cyclopropylmethyl)pyrrolo [2,3-b]pyridin-6-yl]-N-(difluoromethyl) methanesulfonamide] was tested. Which IC50 did it give?
A: 6.51 µM

Q: How did the IC50 turn out when `COc1cc(C(=O)N2[C@@H]3C[C@@H](N)[C@H]2CC3C)cc2nc(-c3cc4ccc(N(C(F)F)S(C)(=O)=O)nc4n3CC3CC3)c(C)n12` (stereo partly drawn) [Example 352, N-[2-[7-[(1R,2R,4R)-2-amino-5-methyl-7-azabicyclo[2.2.1]heptane-7-carbonyl]-5-methoxy-3-methyl-imidazo[1,2-a]pyridin-2-yl]-1-(cyclopropylmethyl)pyrrolo [2,3-b]pyridin-6-yl]-N-(difluoromethyl) methanesulfonamide] was run?
A: 0.711 µM

Q: How did the IC50 turn out when `COc1cc(C(=O)N2C[C@H](N)C[C@@H]2CF)cc2nc(-c3cc4ccc(N(C(F)F)S(C)(=O)=O)nc4n3CC3CC3)c(C)n12` [Example 353, N-[2-[7-[(2R,4R)-4-amino-2-(fluoromethyl)pyrrolidine-1-carbonyl]-5-methoxy-3-methyl-imidazo[1,2-a]pyridin-2-yl]-1-(cyclopropylmethyl)pyrrolo [2,3-b]pyridin-6-yl]-N-(difluoromethyl) methanesulfonamide] was run?
A: 26.8 µM

Q: Which IC50 does the source give for `COc1cc(C(=O)N2C[C@H](N)C[C@@H]2C)cc2nc(-c3cc4ccc(N(C(F)F)S(C)(=O)=O)nc4n3CC3CC3)c(C)n12` [Example 354, N-[2-[7-[(2S,4R)-4-amino-2-methyl-pyrrolidine-1-carbonyl]-5-methoxy-3-methyl-imidazo[1,2-a]pyridin-2-yl]-1-(cyclopropylmethyl)pyrrolo[2,3-b]pyridin-6-yl]-N-(difluoromethyl) methanesulfonamide] here?
A: 1.89 µM

Q: With `COc1cc(C(=O)N2CC[C@H]3OCCCN[C@H]3C2)cc2nc(-c3cc4ccc(N(C(F)F)S(C)(=O)=O)nc4n3CC3CC3)c(C)n12` [Example 359] as the compound, how does the IC50 read?
A: 0.42 µM

Q: Which IC50 does the source give for `COc1cc(C(=O)N2CC[C@@H](NC(C)=O)[C@@H](N)C2)cc2nc(-c3cc4ccc(N(C(F)F)S(C)(=O)=O)nc4n3CC3CC3)c(C)n12` [Example 360, ~{N}-[(3~{S},4~{R})-3-amino-1-[2-[1-(cyclopropylmethyl)-6-[difluoromethyl (methylsulfonyl)amino]pyrrolo[2,3-b]pyridin-2-yl]-5-methoxy-3-methylimidazo[1,2-a]pyridine-7-carbonyl]piperidin-4-yl]acetamide] here?
A: 0.725 µM

Q: For `COc1cc(C(=O)N2C[C@H]3CC(F)[C@@H]2[C@@H]3N)cc2nc(-c3cc4ccc(N(C(F)F)S(C)(=O)=O)nc4n3CC3CC3)c(C)n12` (stereo partly drawn) [Example 361, N-[2-[7-[(1S,4R,7R)-7-amino-6-fluoro-2-azabicyclo[2.2.1]heptane-2-carbonyl]-5-methoxy-3-methyl-imidazo[1,2-a]pyridin-2-yl]-1-(cyclopropylmethyl)pyrrolo [2,3-b]pyridin-6-yl]-N-(difluoromethyl) methanesulfonamide], which IC50 is on record?
A: 0.258 µM

Q: `COc1cc(C(=O)N2CC[C@H]3C[C@@]3(N)C2)cc2nc(-c3cc4ccc(N(C(F)F)S(C)(=O)=O)nc4n3CC3CC3)c(C)n12` [Example 362, ~{N}-[2-[7-[(1~{S}, 6~{S})-1-amino-3-azabicyclo[4.1.0]heptane-3-carbonyl]-5-methoxy-3-methylimidazo [1,2-a]pyridin-2-yl]-1-(cyclopropylmethyl)pyrrolo [2,3-b]pyridin-6-yl]-~{N}-(difluoromethyl) methanesulfonamide] was tested. Which IC50 did it give?
A: 0.248 µM

Q: With `COc1cc(C(=O)N2CC[C@@H]3C[C@]3(N)C2)cc2nc(-c3cc4ccc(N(C(F)F)S(C)(=O)=O)nc4n3CC3CC3)c(C)n12` [Example 363, ~{N}-[2-[7-[(1~{R},6~{R})-1-amino-3-azabicyclo[4.1.0]heptane-3-carbonyl]-5-methoxy-3-methylimidazo[1,2-a]pyridin-2-yl]-1-(cyclopropylmethyl)pyrrolo [2,3-b]pyridin-6-yl]-~{N}-(difluoromethyl) methanesulfonamide] as the compound, how does the IC50 read?
A: 1.96 µM

Q: With `COc1cc(C(=O)N2CCC3CC3(N)C2)cc2nc(-c3cc4ccc(N(C(F)F)S(C)(=O)=O)nc4n3CC3CC3)c(C)n12` (stereo not shown) [Example 365, ~{N}-[2-[7-(1-amino-3-azabicyclo[4.1.0]heptane-3-carbonyl)-5-methoxy-3-methylimidazo [1,2-a]pyridin-2-yl]-1-(cyclopropylmethyl)pyrrolo [2,3-b]pyridin-6-yl]-~{N}-(difluoromethyl) methanesulfonamide] as the compound, how does the IC50 read?
A: 0.403 µM

Q: With `[2H]C([2H])([2H])N(c1ccc2cc(-c3nc4cc(C(=O)N5C[C@H]6CC[C@@H]5[C@@H]6N)cc(OC)n4c3C)n(CC)c2n1)S(C)(=O)=O` [Example 366, N-[2-[7-[(1R,4R,7R)-7-amino-2-azabicyclo[2.2.1]heptane-2-carbonyl]-5-methoxy-3-methyl-imidazo[1,2-a]pyridin-2-yl]-1-ethyl-pyrrolo [2,3-b]pyridin-6-yl]-N-(trideuteriomethyl) methanesulfonamide] as the compound, how does the IC50 read?
A: 0.499 µM

Q: Which IC50 does the source give for `COc1cc(C(=O)N2CC3(CNC3)C2)cc2nc(-c3cc4ccc(N(C(F)F)S(C)(=O)=O)nc4n3CC3CC3)c(C)n12` [Example 367, ~{N}-[1-(cyclopropylmethyl)-2-[7-(2,6-diazaspiro[3.3]heptane-2-carbonyl)-5-methoxy-3-methylimidazo[1,2-a]pyridin-2-yl]pyrrolo[2,3-b]pyridin-6-yl]-~{N}-(difluoromethyl) methanesulfonamide] here?
A: 5.31 µM

Q: For `COc1cc(C(=O)N2C[C@H]3CC[C@@H]2[C@@H](N)C3)cc2nc(-c3cc4ccc(N(C(F)F)S(C)(=O)=O)nc4n3CC3CC3)c(C)n12` [Example 368, ~{N}-[2-[7-[(1~{R},4~{S}, 6~{S})-6-amino-2-azabicyclo[2.2.2]octane-2-carbonyl]-5-methoxy-3-methylimidazo[1,2-a]pyridin-2-yl]-1-(cyclopropylmethyl)pyrrolo [2,3-b]pyridin-6-yl]-~{N}-(difluoromethyl) methanesulfonamide], which IC50 is on record?
A: 43.6 µM

Q: With `CCC1CC2CN(C(=O)c3cc(OC)n4c(C)c(-c5cc6ccc(N(C(F)F)S(C)(=O)=O)nc6n5CC5CC5)nc4c3)C1C2N` (stereo not shown) [Example 370] as the compound, how does the IC50 read?
A: 17.1 µM
